One test has as its target CDK13 (Homo sapiens, UniProt Q14004). Put plainly: Western blot degradation of CDK13 (Example 2). On the set-up: degradation of CDK12/13 protein in leukemia cells KASUMI-1, MV4-11, and Jurkat; endogenous in cells. As to conditions: DC50 classes, cell line not given; for DC50: read-out: CDK13 degradation Activity. Type of test: cell-based. As to the method:
(§1) Western blot was used to determine the degradation of CDK12/13 protein in leukemia cells KASUMI-1, MV4-11, and Jurkat. The two compounds with the best degradation effects were further validated for their ability to degrade CDK12/13 protein in breast cancer cells MDA-MB-231 using a concentration gradient.
(§2) • Cell lines: KASUMI-1, MV4-11, Jurkat, or MDA-MB-231 • Culture medium: DMEM/RIPM-1640+10% Hyclone serum • Compound dissolution method: Compounds were dissolved in DMSO to prepare a 50 mM stock solution, and then diluted to the corresponding concentrations.
(§3) (1) In vitro cell culture: The selected cells were cultured in a 37 °C constant temperature incubator with 5% CO2. Once the cell density reached 70-90%, they were passaged for subsequent experiments.
(§4) (2) Cell seeding: Cells were digested, and the cell suspension was transferred to a 1.5 mL Eppendorf tube. After centrifugation at 1,000 rpm for 5 min, the cells were resuspended in 2 mL of culture medium and counted. The cell suspension was seeded in a 24-well plate at a density of 200,000 cells per well and allowed to adhere for 8-12 h.
(§5) (3) Compound treatment: The 50 mM compound stock solution was diluted with cell culture medium to a final concentration of 0.01 μM-3 μM. Cells were incubated in a 37 °C incubator with 5% CO2 for 3 h-48 h. The DMSO group served as the negative control.
(§6) At the end of the treatment time, the cells were collected and washed once with PBS. An appropriate volume of 4% SDS was added to lyse the cells, and the mixture was sonicated until no longer viscous. After centrifugation at 12,000 rpm at room temperature for 30 min, the supernatant was transferred to a new EP tube for protein quantification.
(§7) The exposure results were quantitatively analyzed using Image J software. First, the grayscale values of the bands were calculated using Image J. Then, the grayscale value of the target protein was divided by the grayscale value of the internal reference protein for normalization. The calculation formula is: […]
(§8) Where A is the grayscale value and D is the degradation rate.
(§9) In the figures, CDK12 and CDK13 are the target proteins under study, and β-Actin and GAPDH are the internal reference proteins. Internal reference proteins are used to indicate the total protein amount in each experimental group for quantitative analysis.

A further test has as its target CDK12 (Homo sapiens, UniProt Q9NYV4). Put plainly: Western blot degradation of CDK12 (Example 2). As to conditions: DC50 classes, cell line not given; for DC50: read-out: CDK12 degradation Activity. On the set-up: degradation of CDK12/13 protein in leukemia cells KASUMI-1, MV4-11, and Jurkat; endogenous in cells. Type of test: cell-based. As to the method:
as §1, §2, §3, §4, §5, §6, §7, §8, §9

Chain of CDK13 (Q14004 whole entry): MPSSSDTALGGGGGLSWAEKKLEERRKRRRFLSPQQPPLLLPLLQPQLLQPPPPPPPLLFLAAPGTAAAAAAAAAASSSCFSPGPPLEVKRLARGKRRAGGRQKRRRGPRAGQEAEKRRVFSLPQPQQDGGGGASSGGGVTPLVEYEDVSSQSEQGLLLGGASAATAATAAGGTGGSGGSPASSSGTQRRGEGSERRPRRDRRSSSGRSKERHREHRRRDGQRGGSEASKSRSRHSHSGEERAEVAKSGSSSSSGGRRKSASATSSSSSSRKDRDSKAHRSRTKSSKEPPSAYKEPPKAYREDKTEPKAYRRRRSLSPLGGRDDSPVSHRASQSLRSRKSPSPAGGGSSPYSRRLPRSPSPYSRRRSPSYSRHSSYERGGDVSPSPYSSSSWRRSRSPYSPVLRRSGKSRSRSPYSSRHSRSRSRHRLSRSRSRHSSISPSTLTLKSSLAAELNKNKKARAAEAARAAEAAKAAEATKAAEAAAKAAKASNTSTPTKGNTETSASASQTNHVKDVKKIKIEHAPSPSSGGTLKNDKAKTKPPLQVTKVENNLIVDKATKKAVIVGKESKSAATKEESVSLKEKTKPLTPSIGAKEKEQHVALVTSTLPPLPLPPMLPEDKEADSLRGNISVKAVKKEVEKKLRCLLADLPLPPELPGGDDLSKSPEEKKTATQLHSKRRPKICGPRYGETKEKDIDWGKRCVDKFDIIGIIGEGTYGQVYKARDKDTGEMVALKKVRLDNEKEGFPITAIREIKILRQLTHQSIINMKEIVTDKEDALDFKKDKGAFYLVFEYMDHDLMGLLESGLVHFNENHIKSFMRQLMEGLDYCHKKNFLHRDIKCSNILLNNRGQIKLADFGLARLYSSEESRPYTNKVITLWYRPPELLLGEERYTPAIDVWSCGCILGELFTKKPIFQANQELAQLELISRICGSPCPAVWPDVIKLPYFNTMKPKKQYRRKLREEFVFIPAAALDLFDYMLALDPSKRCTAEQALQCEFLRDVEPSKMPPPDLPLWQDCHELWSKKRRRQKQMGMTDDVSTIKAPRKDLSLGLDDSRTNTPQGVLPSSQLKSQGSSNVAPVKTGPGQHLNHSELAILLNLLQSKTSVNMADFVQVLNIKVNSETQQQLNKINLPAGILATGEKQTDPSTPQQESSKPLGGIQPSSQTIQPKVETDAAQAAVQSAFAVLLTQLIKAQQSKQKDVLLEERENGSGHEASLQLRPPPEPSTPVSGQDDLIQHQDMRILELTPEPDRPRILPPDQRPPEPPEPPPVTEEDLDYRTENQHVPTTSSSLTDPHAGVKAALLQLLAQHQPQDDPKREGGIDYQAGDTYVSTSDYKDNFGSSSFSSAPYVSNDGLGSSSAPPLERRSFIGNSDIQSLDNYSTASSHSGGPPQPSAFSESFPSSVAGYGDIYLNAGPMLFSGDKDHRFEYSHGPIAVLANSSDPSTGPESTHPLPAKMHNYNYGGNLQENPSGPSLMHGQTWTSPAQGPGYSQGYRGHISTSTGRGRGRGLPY
Chain of CDK13 (O75909 whole entry partner): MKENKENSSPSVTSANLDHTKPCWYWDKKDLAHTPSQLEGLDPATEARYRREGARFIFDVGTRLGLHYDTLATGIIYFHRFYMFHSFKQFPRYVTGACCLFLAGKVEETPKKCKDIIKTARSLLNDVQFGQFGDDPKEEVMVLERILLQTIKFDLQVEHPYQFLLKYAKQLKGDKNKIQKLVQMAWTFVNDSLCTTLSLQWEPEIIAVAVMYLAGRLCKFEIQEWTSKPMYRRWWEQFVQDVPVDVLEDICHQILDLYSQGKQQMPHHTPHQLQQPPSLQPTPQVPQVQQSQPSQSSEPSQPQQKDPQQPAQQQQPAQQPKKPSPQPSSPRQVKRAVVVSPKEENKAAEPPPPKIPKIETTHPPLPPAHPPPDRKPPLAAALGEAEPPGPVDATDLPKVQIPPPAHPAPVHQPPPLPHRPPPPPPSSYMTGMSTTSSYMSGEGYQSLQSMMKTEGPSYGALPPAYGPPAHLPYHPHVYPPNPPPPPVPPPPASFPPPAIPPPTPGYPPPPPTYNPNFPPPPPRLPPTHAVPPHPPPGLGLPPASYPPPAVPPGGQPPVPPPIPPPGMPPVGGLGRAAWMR
Chain of CDK12 (Q9NYV4 whole entry): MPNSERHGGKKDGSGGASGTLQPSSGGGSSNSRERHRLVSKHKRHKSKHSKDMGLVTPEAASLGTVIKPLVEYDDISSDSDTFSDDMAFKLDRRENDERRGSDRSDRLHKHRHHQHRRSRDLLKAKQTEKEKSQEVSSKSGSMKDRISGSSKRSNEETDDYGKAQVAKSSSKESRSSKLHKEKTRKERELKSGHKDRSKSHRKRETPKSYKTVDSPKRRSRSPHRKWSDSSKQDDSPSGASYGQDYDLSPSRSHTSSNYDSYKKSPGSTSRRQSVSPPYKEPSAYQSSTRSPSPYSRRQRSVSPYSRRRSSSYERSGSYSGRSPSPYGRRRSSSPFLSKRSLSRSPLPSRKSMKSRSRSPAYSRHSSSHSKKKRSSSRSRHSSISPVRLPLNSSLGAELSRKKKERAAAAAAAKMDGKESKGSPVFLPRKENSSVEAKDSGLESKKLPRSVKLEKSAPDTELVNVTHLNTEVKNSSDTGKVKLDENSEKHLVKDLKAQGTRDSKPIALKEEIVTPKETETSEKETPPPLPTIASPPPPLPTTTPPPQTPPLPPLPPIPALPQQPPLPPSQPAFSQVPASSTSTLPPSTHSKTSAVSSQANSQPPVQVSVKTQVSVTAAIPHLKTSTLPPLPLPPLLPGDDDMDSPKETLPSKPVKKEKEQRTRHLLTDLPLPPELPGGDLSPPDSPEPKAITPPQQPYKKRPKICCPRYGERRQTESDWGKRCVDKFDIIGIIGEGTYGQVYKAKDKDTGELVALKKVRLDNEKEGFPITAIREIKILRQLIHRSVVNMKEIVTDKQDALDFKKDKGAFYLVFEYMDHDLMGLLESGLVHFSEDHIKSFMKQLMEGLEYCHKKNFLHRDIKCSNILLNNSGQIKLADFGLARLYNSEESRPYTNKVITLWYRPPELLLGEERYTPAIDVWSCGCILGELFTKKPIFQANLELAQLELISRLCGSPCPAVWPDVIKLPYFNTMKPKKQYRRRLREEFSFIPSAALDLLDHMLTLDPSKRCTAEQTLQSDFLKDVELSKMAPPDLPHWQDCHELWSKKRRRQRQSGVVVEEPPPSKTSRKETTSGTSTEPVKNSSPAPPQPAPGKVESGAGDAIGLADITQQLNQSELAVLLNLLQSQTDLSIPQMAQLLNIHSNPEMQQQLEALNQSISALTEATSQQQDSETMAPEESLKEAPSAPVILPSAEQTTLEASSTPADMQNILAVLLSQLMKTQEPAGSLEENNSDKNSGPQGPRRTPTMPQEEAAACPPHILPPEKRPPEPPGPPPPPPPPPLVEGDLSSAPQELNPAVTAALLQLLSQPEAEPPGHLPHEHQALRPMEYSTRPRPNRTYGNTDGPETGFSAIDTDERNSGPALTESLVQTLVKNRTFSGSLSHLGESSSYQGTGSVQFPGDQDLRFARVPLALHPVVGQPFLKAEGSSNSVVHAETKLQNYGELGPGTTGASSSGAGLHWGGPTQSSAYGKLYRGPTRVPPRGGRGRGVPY
Chain of CDK12 (O75909 whole entry partner): as the sequence (O75909 whole entry partner) above

In the case of `Cc1ncsc1-c1ccc([C@H](C)NC(=O)[C@@H]2C[C@@H](O)CN2C(=O)[C@@H](NC(=O)N2CCC3(CC2)CCN(c2ccc(N(C(=O)NCc4ccccc4)[C@H]4CC[C@H](Nc5ccc(C#N)cn5)CC4)cc2)CC3)C(C)(C)C)cc1` [Formula 51], the DC50 at CDK13 and at CDK12 was 3 to 10 µM each time.

As for `N#Cc1ccc(N[C@H]2CC[C@H](N(C(=O)NCc3ccccc3)c3ccc(-c4ccc(OCCNc5cccc6c5C(=O)N(C5CCC(=O)NC5=O)C6=O)nc4)cc3)CC2)nc1` (some centres unmarked) [Formula 37], the DC50 on CDK13 lay in the range of 0.5 to 1 µM; at CDK12, 1 to 3 µM.

With `Cc1ncsc1-c1ccc([C@H](C)NC(=O)[C@@H]2C[C@@H](O)CN2C(=O)[C@@H](NC(=O)CN2CCC(COc3ccc(-c4ccc(N(C(=O)NCc5ccccc5)[C@H]5CC[C@H](Nc6ccc(C#N)cn6)CC5)cc4)cn3)CC2)C(C)(C)C)cc1` [Formula 12], the DC50 on CDK13 is 0.1 to 0.5 µM; at CDK12, 0.5 to 1 µM.

Regarding `Cc1ncsc1-c1ccc([C@H](C)NC(=O)[C@@H]2C[C@@H](O)CN2C(=O)[C@@H](NC(=O)COCCn2cc(-c3ccc(N(C(=O)NCc4ccccc4)[C@H]4CC[C@H](Nc5ccc(C#N)cn5)CC4)cc3)ccc2=O)C(C)(C)C)cc1` [Formula 56], the “CDK13 degradation Activity” value on CDK13 is listed as “−”. Moreover, the “CDK12 degradation Activity” value at CDK12 was “−”.

`Cc1ncsc1-c1ccc([C@H](C)NC(=O)[C@@H]2C[C@@H](O)CN2C(=O)[C@@H](NC(=O)CC#CCOc2ccc(-c3ccc(N(C(=O)NCc4ccccc4)[C@H]4CC[C@H](Nc5ccc(C#N)cn5)CC4)cc3)cn2)C(C)(C)C)cc1` [Formula 16]: the DC50 on CDK13 and on CDK12 was 3 to 10 µM each time.

`N#Cc1ccc(N[C@H]2CC[C@H](N(C(=O)NCc3ccccc3)c3ccc(-c4ccc(=O)n(CCOCCNc5cccc6c5C(=O)N(C5CCC(=O)NC5=O)C6=O)c4)cc3)CC2)nc1` (some centres unmarked) [Formula 46]: the DC50 on CDK13 was in the range of 0.5 to 1 µM; on CDK12, 1 to 3 µM.

As for `Cc1ncsc1-c1ccc([C@H](C)NC(=O)[C@@H]2C[C@@H](O)CN2C(=O)[C@@H](NC(=O)C2CC3(CC(Nc4ccc(-c5ccc(N(C(=O)NCc6ccccc6)[C@H]6CC[C@H](Nc7ccc(C#N)cn7)CC6)cc5)cn4)C3)C2)C(C)(C)C)cc1` (some centres unmarked) [Formula 28], the DC50 on CDK13 and at CDK12 was 3 to 10 µM each time.

For the molecule `Cc1ncsc1-c1ccc([C@H](C)NC(=O)[C@@H]2C[C@@H](O)CN2C(=O)[C@@H](NC(=O)N2CCC3(CC2)CCN(c2ccc(N(C(=O)NCc4ccccc4)[C@H]4CC[C@H](Nc5ccc(C#N)cn5)CC4)cn2)CC3)C(C)(C)C)cc1` [Formula 52], at CDK13, the “CDK13 degradation Activity” value is “−”. In addition, at CDK12, the DC50 lay within 3 to 10 µM.

`N#Cc1ccc(N[C@H]2CC[C@H](N(C(=O)NCc3ccccc3)c3ccc(-c4ccc(=O)n(CCOCCOCCOCCNc5cccc6c5C(=O)N(C5CCC(=O)NC5=O)C6=O)c4)cc3)CC2)nc1` (some centres unmarked) [Formula 48]: the “CDK13 degradation Activity” value on CDK13 is reported as “−”. For the same molecule, the DC50 at CDK12 lay in the range of 3 to 10 µM.

On to `Cc1ncsc1-c1ccc([C@H](C)NC(=O)[C@@H]2C[C@@H](O)CN2C(=O)[C@@H](NC(=O)CN2CCN(c3ncc(-c4ccc(N(C(=O)NCc5ccccc5)[C@H]5CC[C@H](Nc6ccc(C#N)cn6)CC5)cc4)cn3)CC2)C(C)(C)C)cc1` [Formula 79], for which the DC50 at CDK13 and at CDK12 was less than 0.1 µM in each case.

For the molecule `Cc1ncsc1-c1ccc([C@H](C)NC(=O)[C@@H]2C[C@@H](O)CN2C(=O)[C@@H](NC(=O)CC2CN(c3ccc(-c4ccc(N(C(=O)NCc5ccccc5)[C@H]5CC[C@H](Nc6ccc(C#N)cn6)CC5)cc4)cn3)C2)C(C)(C)C)cc1` [Formula 29], the “CDK13 degradation Activity” value on CDK13 is reported as “−”. In addition, at CDK12, the DC50 is 3 to 10 µM.

With `Cc1ncsc1-c1ccc([C@H](C)NC(=O)[C@@H]2C[C@@H](O)CN2C(=O)[C@@H](NC(=O)CC#CC2CCN(c3ccc(-c4ccc(N(C(=O)NCc5ccccc5)[C@H]5CC[C@H](Nc6ccc(C#N)cn6)CC5)cc4)cn3)CC2)C(C)(C)C)cc1` [Formula 19], the “CDK13 degradation Activity” value on CDK13 is on record as “−”. In addition, the “CDK12 degradation Activity” value on CDK12 is listed as “−”.

Turning to `Cc1ncsc1-c1ccc([C@H](C)NC(=O)[C@@H]2C[C@@H](O)CN2C(=O)[C@@H](NC(=O)Cn2cc(-c3ccc(N(C(=O)NCc4ccccc4)[C@H]4CC[C@H](Nc5ncc(C#N)cn5)CC4)cc3)ccc2=O)C(C)(C)C)cc1` [Formula 61], the “CDK13 degradation Activity” value at CDK13 is “−”. Moreover, the “CDK12 degradation Activity” value on CDK12 is on record as “−”.

On to `CCNC(=O)N(c1ccc(-c2ccc(N3CCN(CC(=O)N[C@H](C(=O)N4C[C@H](O)C[C@H]4C(=O)N[C@@H](C)c4ccc(-c5scnc5C)cc4)C(C)(C)C)CC3)nc2)cc1)[C@H]1CC[C@H](Nc2ccc(C#N)cn2)CC1` [Formula 44], for which the DC50 on CDK13 was 0.1 to 0.5 µM; on CDK12 it was 0.5 to 1 µM.

In the case of `Cc1ncsc1-c1ccc([C@H](C)NC(=O)[C@@H]2C[C@@H](O)CN2C(=O)[C@@H](NC(=O)COCCOCCOCCN2CCN(c3ccc(N(C(=O)NCc4ccccc4)[C@H]4CC[C@H](Nc5ccc(C#N)cn5)CC4)cc3)CC2)C(C)(C)C)cc1` [Formula 9], the DC50 at CDK13 and at CDK12 was 3 to 10 µM each time.

For `N#Cc1ccc(N[C@H]2CC[C@H](N(C(=O)NCc3ccccc3)c3ccc(N4CCN(CCOCCOCCOCCOCCNc5cccc6c5C(=O)N(C5CCC(=O)NC5=O)C6=O)CC4)cc3)CC2)nc1` (some centres unmarked) [Formula 41], the DC50 at CDK13 and on CDK12 was 1 to 3 µM each time.

With `N#Cc1ccc(N[C@H]2CC[C@H](N(C(=O)NCc3ccccc3)c3ccc(-c4ccc(OCCOCCNc5cccc6c5C(=O)N(C5CCC(=O)NC5=O)C6=O)nc4)cc3)CC2)nc1` (some centres unmarked) [Formula 32], the values for the DC50 on CDK13 and on CDK12 were 0.5 to 1 µM and 1 to 3 µM, respectively.

For `Cc1ncsc1-c1ccc([C@H](C)NC(=O)[C@@H]2C[C@@H](O)CN2C(=O)[C@@H](NC(=O)COCCOCCOCCOCCOCCn2cc(-c3ccc(N(C(=O)NCc4ccccc4)[C@H]4CC[C@H](Nc5ccc(C#N)cn5)CC4)cc3)ccc2=O)C(C)(C)C)cc1` [Formula 60], the DC50 on CDK13 lay in the range of 0.5 to 1 µM; on CDK12 it was 1 to 3 µM.

With `Cc1ncsc1-c1ccc([C@H](C)NC(=O)[C@@H]2C[C@@H](O)CN2C(=O)[C@@H](NC(=O)CC2CCN(c3ccc(-c4ccc(N(C(=O)NCc5ccccc5)[C@H]5CC[C@H](Nc6ccc(C#N)cn6)CC5)cc4)cn3)C2)C(C)(C)C)cc1` (some centres unmarked) [Formula 30], the DC50 at CDK13 and at CDK12 was 0.5 to 1 µM in each case.

For the molecule `Cc1ncsc1-c1ccc([C@H](C)NC(=O)[C@@H]2C[C@@H](O)CN2C(=O)[C@@H](NC(=O)COCCOCCOCCOCCOc2ccc(-c3ccc(N(C(=O)NCc4ccccc4)[C@H]4CC[C@H](Nc5ccc(C#N)cn5)CC4)cc3)cn2)C(C)(C)C)cc1` [Formula 4], the DC50 at CDK13 and on CDK12 was 3 to 10 µM each time.

For `Cc1ncsc1-c1ccc([C@H](C)NC(=O)[C@@H]2C[C@@H](O)CN2C(=O)[C@@H](NC(=O)CN2CCN(c3ccc(N(C(=O)NCc4ccccc4)[C@H]4CC[C@H](Nc5ccc(C#N)cn5)CC4)cc3)CC2)C(C)(C)C)cc1` [Formula 10], the DC50 at CDK13 and on CDK12 was 1 to 3 µM in each case.

Consider `Cc1ncsc1-c1ccc([C@H](C)NC(=O)[C@@H]2C[C@@H](O)CN2C(=O)[C@@H](NC(=O)C2CCN(C(=O)C3CCN(c4ccc(-c5ccc(N(C(=O)NCc6ccccc6)[C@H]6CC[C@H](Nc7ccc(C#N)cn7)CC6)cc5)cn4)CC3)CC2)C(C)(C)C)cc1` [Formula 21], for which the DC50 on CDK13 and on CDK12 was 1 to 3 µM in each case.

Turning to `Cc1ncsc1-c1ccc([C@H](C)NC(=O)[C@@H]2C[C@@H](O)CN2C(=O)[C@@H](NC(=O)COCCN2CCN(c3ccc(N(C(=O)NCc4ccccc4)[C@H]4CC[C@H](Nc5ccc(C#N)cn5)CC4)cc3)CC2)C(C)(C)C)cc1` [Formula 7], the values for the DC50 on CDK13 and at CDK12 were 3 to 10 µM and 1 to 3 µM, respectively.

For the molecule `Cc1ncsc1-c1ccc([C@H](C)NC(=O)[C@@H]2C[C@@H](O)CN2C(=O)[C@@H](NC(=O)CN2CC(C#Cc3ccc(N(C(=O)NCc4ccccc4)[C@H]4CC[C@H](Nc5ccc(C#N)cn5)CC4)cc3)C2)C(C)(C)C)cc1` [Formula 26], the “CDK13 degradation Activity” value at CDK13 was “−”. For the same molecule, the “CDK12 degradation Activity” value on CDK12 is recorded as “−”.

For the molecule `N#Cc1ccc(N[C@H]2CC[C@H](N(C(=O)NCc3ccccc3)c3ccc(-c4ccc(OCCOCCOCCOCCOCCNc5cccc6c5C(=O)N(C5CCC(=O)NC5=O)C6=O)nc4)cc3)CC2)nc1` (some centres unmarked) [Formula 35], the DC50 on CDK13 lay within 3 to 10 µM; at CDK12 it was 1 to 3 µM.

These data come from US20260327204A1, “DEGRADERS OF CYCLIN-DEPENDENT KINASE 12/13, COMPOSITIONS, AND USES THEREOF” (ZHEJIANG UNIVERSITY, priority 2023, published 2026).
